Experimental data as given in patent US10905691B2, “Use of triazolo(4,5-d)pyrimidine derivatives for prevention and treatment of bacterial infection” (Universite de Liege, priority 2016, dated 2021).

Legend:
[1] = test system: Escherichia coli (ATCC 8739); experiment: MIC determination with or without polymyxin B nonapeptide (PMBN); format: cell-based; conditions: PMBN alone up to 40 μg/ml
Description: Determination of Minimal Inhibitory Concentration (MIC) and Minimal Bactericidal Concentration (MBC) of Triafluocyl (Cayman Chemical, Item No. 15425) in presence of polymyxin B nonapeptide (PMBN) (Sigma-Aldrich Merk, Item No. P2076) against Escherichia coli (ATCC 8739). […] A single colony grown on a Luria-Bertani Agar (LB) plate was resuspended and cultured in LB medium overnight (O/N) in aerobic conditions (37° C. with 220 rpm shaking), next day a 1:50 inoculum in Mueller-Hinton broth (MHB) is incubated in aerobic conditions for 1 h30 (OD=0.08-0.1) and an inoculum corresponding to 3×10^6 colony forming unit (CFU)/ml, is incubated in presence or absence of different concentrations of Triafluocyl in 1% DMSO with or without 40 μg/ml Polymyxin B nonapeptide (PMBN) for 18 hr in aerobic conditions (37° C. with 220 rpm shaking). Growth of Escherichia coli in 7 conditions depicted in FIG. 11 is evaluated by reading the OD of each culture at 600 nm (OD600) in a spectrophotometer (Victor 3-Perkin Elmer). Determination of Minimal Inhibitory Concentration (MIC) and Minimal Bactericidal Concentration (MBC) of Fluometacyl in presence of polymyxin B nonapeptide (PMBN) (Sigma-Aldrich Merk, Item No. P2076) against Escherichia coli (ATCC 8739). The Minimal Inhibitory Concentration (MIC) represents the concentration, in a liquid culture, at which there is no visible growth of bacteria (no pellet or cloudiness), i.e. ΔOD at 600 nm equal to zero wherein ΔOD is the difference between the resulting optical density (OD) with the molecule together with PMBN, and the optical density (OD) of the blank (blank is the medium alone). A single colony grown on a Luria-Bertani Agar (LB) plate is resuspended and cultured in LB medium overnight (O/N) in aerobic conditions (37° C. with 220 rpm shaking), next day a 1:50 inoculum in Mueller-Hinton broth (MHB) is incubated in aerobic conditions for 1 h30 (OD=0.08-0.1) and an inoculum corresponding to 3×10^6 colony forming unit (CFU)/ml is incubated in presence or absence of different concentrations of Fluometacyl in 1% DMSO (vehicle) with or without 40 μg/ml Polymyxin B nonapeptide (PMBN) for 18 hr in aerobic conditions (37° C. with 220 rpm shaking). Growth of bacteria in the 7 individual cultures (FIG. 12A) is evaluated by reading the OD of each culture at 600 nm (OD600) in a spectrophotometer (Victor 3-Perkin Elmer).

[2] = test system: S. aureus MRSA (ATCC BAA-1556); experiment: Killing curve (CFU counting); format: cell-based, Staphylococcus aureus; conditions: Triafluocyl 20 μg/ml
Description: S. aureus MRSA (ATCC BAA-1556) was grown overnight in brain heart infusion (BHI) medium, diluted 1:100 in fresh BHI, and incubated aerobically at 37° C. until bacteria growth reached a logarithmic phase (OD600=0.25-0.3).
Triafluocyl (Cayman Chemical, Item No. 15425) (20 μg/ml), Vancomycin (Sigma, 4 μg/ml or 10 μg/ml), Minocycline (Sigma, 8 μg/ml) or a solvent (DMSO) were added to 5 ml of S. aureus MRSA suspensions.
Bacterial growth for S. aureus MRSA was measured after different time intervals by counting the colony-forming units after plating appropriate culture dilutions on BHI agar plates.
S. aureus MRSA (ATCC BAA-1556) was grown overnight in BHI medium, then a 1:100 inoculum was diluted in fresh BHI and incubated aerobically at 37° C. until bacteria growth reached a logarithmic phase (OD600=0.25-0.3). The culture was split into two and challenged with 38 μM Fluometacyl (=18.2 μg/ml) or DMSO (Ctrl). Bacterial growth was measured after different time intervals by counting the colony-forming units after plating appropriate culture dilutions on BHI agar plates. (N=2)

Molecule | inhibition of E. coli growth [1] | effect on S. aureus MRSA viable count after the first two hours ([2]; Vancomycin 10-fold MIC, Minocycline 8-fold MIC, FIG. 8A) | bactericidal effect over the 24 h-experiment compared with Triafluocyl ([2]; Vancomycin 4 or 10 μg/ml, Minocycline 8 μg/ml)
polymyxin B nonapeptide [PMBN, reference compound] | unable to inhibit E. coli growth | – | –
CN[C@H](CC(C)C)C(=O)N[C@H]1C(=O)N[C@@H](CC(N)=O)C(=O)N[C@H]2C(=O)N[C@H]3C(=O)N[C@H](C(=O)N[C@H](C(=O)O)c4cc(O)cc(O)c4-c4cc3ccc4O)[C@H](O)c3ccc(c(Cl)c3)Oc3cc2cc(c3O[C@@H]2O[C@H](CO)[C@@H](O)[C@H](O)[C@H]2O[C@H]2C[C@](C)(N)[C@H](O)[C@H](C)O2)Oc2ccc(cc2Cl)[C@H]1O [Vancomycin, reference compound] | – | ineffective | less efficient
